Measurements taken from paper PMC10257182, “Discovery of senolytics using machine learning” (Nature Communications, 2023).
Several values for one entry are separate records, joined by “and”; a condition that tells them apart may be missing. Equal entries are not always repeated. Where two headings read alike, the source gives them in different places.

Experiments:
Type in all cases: cell-based, human
[1] = system: non-senescent control A549 cells; assay: Nuclei count senolytic assay, TIS model, non-senescent control cells; conditions: Control cells, mean
How it was run: (§1)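 Etoposide 100 μM, 48 h, + 3 d standard media → senescent A549; untreated A549 = controls. 24 h post-seeding, cpds 10 nM–10 μM final, 10-pt […], 72 h, n=3. Fix formaldehyde, permeabilise Triton-X100, Hoechst 2 μg/ml, image, count nuclei.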

[2] = system: senescent IMR90 ER:RAS cells (4-OHT-induced); assay: Nuclei count (Hoechst, high content imaging) senolytic assay, oncogene-induced senescence (OIS) model, senescent cells
How it was run: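 IMR90 ER:RAS (p14), ±4-OHT 100 nM; cpd 10 nM–10 μM, 10-pt […], 72 h, n=3. Fix formaldehyde, Triton X-100, Hoechst 2 μg/ml final. Readout: imaged nuclei count vs untreated; ouabain positive control.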

[3] = system: senescent A549 cells (etoposide-induced); assay: Nuclei count senolytic assay, therapy-induced senescence (TIS) model, senescent cells; conditions: Senescent cells, mean
How it was run: as §1

[4] = Homo sapiens, A549, log (dose) [M] -5, read-out: Mean % Cell Survival
[5] = Homo sapiens, A549, log (dose) [M] -5.33, read-out: Mean % Cell Survival
[6] = Homo sapiens, A549, log (dose) [M] -5.66, read-out: Mean % Cell Survival
[7] = Homo sapiens, A549, log (dose) [M] -6, read-out: Mean % Cell Survival
[8] = Homo sapiens, A549, log (dose) [M] -6.33, read-out: Mean % Cell Survival
[9] = Homo sapiens, A549, log (dose) [M] -6.66, read-out: Mean % Cell Survival
[10] = Homo sapiens, A549, log (dose) [M] -7, read-out: Mean % Cell Survival
[11] = Homo sapiens, A549, log (dose) [M] -7.33, read-out: Mean % Cell Survival
[12] = Homo sapiens, A549, log (dose) [M] -7.66, read-out: Mean % Cell Survival
[13] = Homo sapiens, A549, log (dose) [M] -8, read-out: Mean % Cell Survival

CC(C)=CCc1c(O)cc2oc3cc(O)c(O)c(CC=C(C)C)c3c(=O)c2c1O [Gamma mangostin, gamma mangostin]
Mean % Cell Survival ([1]; log (dose) [M] -5): 93.7374%
Mean % Cell Survival ([1]; log (dose) [M] -5.33): 87.8038%
Mean % Cell Survival ([1]; log (dose) [M] -5.66): 85.4347%
Mean % Cell Survival ([1]; log (dose) [M] -6): 84.7862%
Mean % Cell Survival ([1]; log (dose) [M] -6.33): 88.6728%
Mean % Cell Survival ([1]; log (dose) [M] -6.66): 87.417%
Mean % Cell Survival ([1]; log (dose) [M] -7): 92.9654%
Mean % Cell Survival ([1]; log (dose) [M] -7.33): 92.7713%
Mean % Cell Survival ([1]; log (dose) [M] -7.66): 95.9525%
Mean % Cell Survival ([1]; log (dose) [M] -8): 100.153%
% Cell Survival ([2]; Senescent cells, log (dose) [M] -5, individual replicates, SUP FIG 4C): 68.9759% and 85.4054% and 104.1% and 60.479%
% Cell Survival ([2]; Senescent cells, log (dose) [M] -5.33, individual replicates, SUP FIG 4C): 98.1928% and 112.613% and 125.668% and 83.9521%
% Cell Survival ([2]; Senescent cells, log (dose) [M] -5.66, individual replicates, SUP FIG 4C): 81.0241% and 178.198% and 139.216% and 80.9581%
% Cell Survival ([2]; Senescent cells, log (dose) [M] -6, individual replicates, SUP FIG 4C): 64.6084% and 123.964% and 135.651% and 83.2335%
% Cell Survival ([2]; Senescent cells, log (dose) [M] -6.33, individual replicates, SUP FIG 4C): 91.7169% and 121.982% and 131.907% and 40.8383%
% Cell Survival ([2]; Senescent cells, log (dose) [M] -6.66, individual replicates, SUP FIG 4C): 78.1627% and 116.757% and 113.904% and 77.1257%
% Cell Survival ([2]; Senescent cells, log (dose) [M] -7, individual replicates, SUP FIG 4C): 99.8494% and 112.432% and 120.856% and 67.0659%
% Cell Survival ([2]; Senescent cells, log (dose) [M] -7.33, individual replicates, SUP FIG 4C): 98.3434% and 101.081% and 114.082% and 90.8982%
% Cell Survival ([2]; Senescent cells, log (dose) [M] -7.66, individual replicates, SUP FIG 4C): 107.681% and 108.829% and 116.934% and 93.4132%
% Cell Survival ([2]; Senescent cells, log (dose) [M] -8, individual replicates, SUP FIG 4C): 107.53% and 115.315% and 113.725% and 84.9102%
Mean % Cell Survival ([2]; Senescent, log (dose) [M] -5, 72 h, mean n=3 (Fig 3C)): 79.74%
Mean % Cell Survival ([2]; Senescent, log (dose) [M] -5.33, 72 h, mean n=3 (Fig 3C)): 105.106%
Mean % Cell Survival ([2]; Senescent, log (dose) [M] -5.66, 72 h, mean n=3 (Fig 3C)): 119.849%
Mean % Cell Survival ([2]; Senescent, log (dose) [M] -6, 72 h, mean n=3 (Fig 3C)): 101.864%
Mean % Cell Survival ([2]; Senescent, log (dose) [M] -6.33, 72 h, mean n=3 (Fig 3C)): 96.6111%
Mean % Cell Survival ([2]; Senescent, log (dose) [M] -6.66, 72 h, mean n=3 (Fig 3C)): 96.4872%
Mean % Cell Survival ([2]; Senescent, log (dose) [M] -7, 72 h, mean n=3 (Fig 3C)): 100.051%
Mean % Cell Survival ([2]; Senescent, log (dose) [M] -7.33, 72 h, mean n=3 (Fig 3C)): 101.101%
Mean % Cell Survival ([2]; Senescent, log (dose) [M] -7.66, 72 h, mean n=3 (Fig 3C)): 106.714%
Mean % Cell Survival ([2]; Senescent, log (dose) [M] -8, 72 h, mean n=3 (Fig 3C)): 105.37%
% Cell Survival ([2]; Senescent, log (dose) [M] -5): 105.907% and 101.805% and 105.566%
% Cell Survival ([2]; Senescent, log (dose) [M] -5.33): 105.42% and 104.907% and 107.486%
% Cell Survival ([2]; Senescent, log (dose) [M] -5.66): 112.424% and 103.215% and 110.173%
% Cell Survival ([2]; Senescent, log (dose) [M] -6): 104.019% and 94.1906% and 105.054%
% Cell Survival ([2]; Senescent, log (dose) [M] -6.33): 116.322% and 101.974% and 111.9%
% Cell Survival ([2]; Senescent, log (dose) [M] -6.66): 112.85% and 97.8003% and 108.125%
% Cell Survival ([2]; Senescent, log (dose) [M] -7): 120.95% and 109.419% and 113.308%
% Cell Survival ([2]; Senescent, log (dose) [M] -7.33): 110.231% and 111.901% and 120.282%
% Cell Survival ([2]; Senescent, log (dose) [M] -7.66): 99.6955% and 109.475% and 108.701%
% Cell Survival ([2]; Senescent, log (dose) [M] -8): 101.705% and 108.629% and 104.99%
Mean % Cell Survival ([3]; log (dose) [M] -5): 104.426%
Mean % Cell Survival ([3]; log (dose) [M] -5.33): 105.938%
Mean % Cell Survival ([3]; log (dose) [M] -5.66): 108.604%
Mean % Cell Survival ([3]; log (dose) [M] -6): 101.088%
Mean % Cell Survival ([3]; log (dose) [M] -6.33): 110.065%
Mean % Cell Survival ([3]; log (dose) [M] -6.66): 106.259%
Mean % Cell Survival ([3]; log (dose) [M] -7): 114.559%
Mean % Cell Survival ([3]; log (dose) [M] -7.33): 114.138%
Mean % Cell Survival ([3]; log (dose) [M] -7.66): 105.957%
Mean % Cell Survival ([3]; log (dose) [M] -8): 105.108%

COc1cc(/C=C/C(=O)O[C@H]2CC[C@]34C[C@]35CC[C@]3(C)[C@@H]([C@H](C)CCC=C(C)C)CC[C@@]3(C)[C@@H]5CC[C@H]4C2(C)C)ccc1O [Gamma oryzanol, gamma oryzanol]
viability at 10 µM [1, 4]: 37.8%
viability at 4.68 µM [1, 5]: 35%
viability at 2.19 µM [1, 6]: 87.4%
viability at 1 µM [1, 7]: 76.1%
viability at 0.468 µM [1, 8]: 75.3%
viability at 0.219 µM [1, 9]: 109%
viability at 0.1 µM [1, 10]: 105%
viability at 0.0468 µM [1, 11]: 103%
viability at 0.0219 µM [1, 12]: 106%
viability at 0.01 µM [1, 13]: 103%
viability at 10 µM ([2]; Homo sapiens, IMR-90, 72 h, Senescent, log (dose) [M] -5, 72 h, mean n=3 (Fig 3C), read-out: Mean % Cell Survival): 145%
viability at 4.677 µM ([2]; Homo sapiens, IMR-90, 72 h, Senescent, log (dose) [M] -5.33, 72 h, mean n=3 (Fig 3C), read-out: Mean % Cell Survival): 134%
viability at 2.188 µM ([2]; Homo sapiens, IMR-90, 72 h, Senescent, log (dose) [M] -5.66, 72 h, mean n=3 (Fig 3C), read-out: Mean % Cell Survival): 135%
viability at 1 µM ([2]; Homo sapiens, IMR-90, 72 h, Senescent, log (dose) [M] -6, 72 h, mean n=3 (Fig 3C), read-out: Mean % Cell Survival): 139%
viability at 0.4677 µM ([2]; Homo sapiens, IMR-90, 72 h, Senescent, log (dose) [M] -6.33, 72 h, mean n=3 (Fig 3C), read-out: Mean % Cell Survival): 141%
viability at 0.2188 µM ([2]; Homo sapiens, IMR-90, 72 h, Senescent, log (dose) [M] -6.66, 72 h, mean n=3 (Fig 3C), read-out: Mean % Cell Survival): 142%
viability at 0.1 µM ([2]; Homo sapiens, IMR-90, 72 h, Senescent, log (dose) [M] -7, 72 h, mean n=3 (Fig 3C), read-out: Mean % Cell Survival): 132%
viability at 0.04677 µM ([2]; Homo sapiens, IMR-90, 72 h, Senescent, log (dose) [M] -7.33, 72 h, mean n=3 (Fig 3C), read-out: Mean % Cell Survival): 151%
viability at 0.02188 µM ([2]; Homo sapiens, IMR-90, 72 h, Senescent, log (dose) [M] -7.66, 72 h, mean n=3 (Fig 3C), read-out: Mean % Cell Survival): 154%
viability at 0.01 µM ([2]; Homo sapiens, IMR-90, 72 h, Senescent, log (dose) [M] -8, 72 h, mean n=3 (Fig 3C), read-out: Mean % Cell Survival): 125%
viability at 10 µM ([2]; Homo sapiens, IMR-90, Senescent cells, log (dose) [M] -5, individual replicates, SUP FIG 4C, read-out: % Cell Survival): 150%
viability at 2.188 µM ([2]; Homo sapiens, IMR-90, Senescent cells, log (dose) [M] -5.66, individual replicates, SUP FIG 4C, read-out: % Cell Survival): 137%
viability at 0.4677 µM ([2]; Homo sapiens, IMR-90, Senescent cells, log (dose) [M] -6.33, individual replicates, SUP FIG 4C, read-out: % Cell Survival): 153%
viability at 0.01 µM ([2]; Homo sapiens, IMR-90, Senescent, log (dose) [M] -8, read-out: % Cell Survival): 81.6%
senolytic activity (in words) ([2]; experimental screen, OIS IMR90 ER:RAS): inactive
viability at 10 µM [3, 4]: 96.8%
viability at 4.68 µM [3, 5]: 100%
viability at 2.19 µM [3, 6]: 105%
viability at 1 µM [3, 7]: 106%
viability at 0.468 µM [3, 8]: 107%
viability at 0.219 µM [3, 9]: 105%
viability at 0.1 µM [3, 10]: 114%
viability at 0.0468 µM [3, 11]: 126%
viability at 0.0219 µM [3, 12]: 61.5%
viability at 0.01 µM [3, 13]: 76%
